In US8865745B2, “Pyrazolone derivatives as PDE4 inhibitors” (Takeda GmbH, priority 2007, dated 2014):

Legend:
PDE4B1 = PDE4B1 (Homo sapiens (Human), UniProt Q07343); assay: Inhibition of PDE4 activity, [3H]cAMP SPA enzyme assay with recombinant PDE4B1; type: biochemical; details: recombinant PDE4B1 expressed in SF21 cells, 0.5 μM cAMP, 37° C.
Procedure: Method for Measuring Inhibition of PDE4 Activity
The PDE4B1 (GB no. L20966) was a gift of Prof. M. Conti (Stanford University, USA). It was amplified from the original plasmid (pCMV5) via PCR with primers Rb18 (5′-[…]-3′) and Rb10 (5′-[…]-3′) and cloned into the pCR-Bac vector (Invitrogen, Groningen, NL).
The recombinant baculovirus was prepared by means of homologous recombination in SF9 insect cells. The expression plasmids were cotransfected with Baculo-Gold DNA (Pharmingen, Hamburg) using a standard protocol (Pharmingen, Hamburg). Wt virus-free recombinant virus supernatants were selected using plaque assay methods. After that, high-titre virus supernatants were prepared by amplifying 3 times. PDE4B1 was expressed in SF21 cells by infecting 2×10^6 cells/ml with an MOI (multiplicity of infection) between 1 and 10 in the serum-free medium Insect Express Sf9-S2 (PAA, Pasching, Austria). The cells were cultured at 28° C. for 48-72 hours, after which they were pelleted for 5-10 min at 1000×g and 4° C.
The SF21 insect cells were resuspended, at a concentration of approx. 10^7 cells/ml, in ice-cold (4° C.) homogenization buffer (20 mM Tris, pH 8.2, containing the following additions: 140 mM NaCl, 3.8 mM KCl, 1 mM EGTA, 1 mM MgCl2, 10 mM β-mercaptoethanol, 2 mM benzamidine, 0.4 mM Pefablock, […] leupeptin, 10 μM pepstatin A, 5 μM trypsin inhibitor) and disrupted by ultrasonication. The homogenate was then centrifuged for 10 min at 1000×g and the supernatant was stored at −80° C. until subsequent use (see below). The protein content was determined by the Bradford method (BioRad, Munich) using BSA as the standard.
PDE4B1 activity was inhibited by the compounds according to the invention in a modified SPA (scintillation proximity assay) test, supplied by Amersham Biosciences (see procedural instructions “phosphodiesterase [3H]cAMP SPA enzyme assay, code TRKQ 7090”), carried out in 96-well microtitre plates (MTP's). The test volume is 100 μl and contains 20 mM Tris buffer (pH 7.4), 0.1 mg/ml of BSA, 5 mM Mg^2+, 0.5 μM cAMP (including about 50,000 cpm of [3H]cAMP), 1 μl of the respective substance dilution in DMSO and sufficient recombinant PDE (1000×g supernatant, see above) to ensure that 10-20% of the cAMP is converted under the said experimental conditions. […] After a preincubation of 5 min at 37° C., the reaction is started by adding the substrate (cAMP) and the assays are incubated for a further 15 min; after that, they are stopped by adding SPA beads (50 μl). In accordance with the manufacturer's instructions, the SPA beads had previously been resuspended in water, but were then diluted 1:3 (v/v) in water; the diluted solution also contains 3 mM IBMX to ensure a complete PDE activity stop. After the beads have been sedimented (>30 min), the MTP's are analyzed in commercially available luminescence detection devices. The corresponding IC50 values of the compounds for the inhibition of […] activity are determined from the concentration-effect curves by means of non-linear regression.
The inhibitory values determined for the compounds according to the invention follow from the following Table 1, in which the numbers of the compounds correspond to the numbers of the examples.

Chain of PDE4B1 (Q07343 whole entry): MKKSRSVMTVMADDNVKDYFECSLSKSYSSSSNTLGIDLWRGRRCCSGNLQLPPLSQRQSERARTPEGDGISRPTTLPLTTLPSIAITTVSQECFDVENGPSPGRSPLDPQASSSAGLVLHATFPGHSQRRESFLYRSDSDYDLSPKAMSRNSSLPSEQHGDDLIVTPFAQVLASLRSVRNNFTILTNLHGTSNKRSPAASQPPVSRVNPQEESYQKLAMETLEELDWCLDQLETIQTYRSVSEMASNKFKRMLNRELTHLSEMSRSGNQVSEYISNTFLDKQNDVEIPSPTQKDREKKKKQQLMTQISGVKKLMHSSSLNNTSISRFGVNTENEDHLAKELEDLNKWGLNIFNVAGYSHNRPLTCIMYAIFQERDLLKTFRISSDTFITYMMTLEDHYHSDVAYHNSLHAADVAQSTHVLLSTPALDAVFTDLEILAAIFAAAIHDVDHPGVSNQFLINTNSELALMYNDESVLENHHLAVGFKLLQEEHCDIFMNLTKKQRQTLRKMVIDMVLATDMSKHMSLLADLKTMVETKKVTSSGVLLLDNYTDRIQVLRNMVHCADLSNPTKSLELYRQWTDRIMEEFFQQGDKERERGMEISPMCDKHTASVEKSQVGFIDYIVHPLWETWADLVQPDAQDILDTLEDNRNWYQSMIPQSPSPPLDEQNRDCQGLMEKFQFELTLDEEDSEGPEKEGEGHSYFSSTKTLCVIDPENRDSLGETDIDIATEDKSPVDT

Compound: COc1ccc(C2=NN(C3CCN(C(=O)CN4C(=O)COCC4=O)CC3)C(=O)C2(C)C)cc1OC [Compound 1, 4-(2-{4-[3-(3,4-dimethoxyphenyl)-4,4-dimethyl-5-oxo-4,5-dihydro-1H-pyrazol-1-yl]piperidin-1-yl}-2-oxoethyl)morpholine-3,5-dione]
- PDE4 Inhibition [measured as −logIC50 (mol/l)] (PDE4B1): 8.29 −logIC50 (mol/l)
- melting point: 156 to 157 °C

Compound: COc1ccc(C2=NN(C3CCN(C(=O)CN4C(=O)CCC4=O)CC3)C(=O)C2(C)C)cc1OC [Compound 2, 1-(2-{4-[3-(3,4-dimethoxyphenyl)-4,4-dimethyl-5-oxo-4,5-dihydro-1H-pyrazol-1-yl]piperidin-1-yl}-2-oxoethyl)pyrrolidine-2,5-dione]
- PDE4 Inhibition [measured as −logIC50 (mol/l)] (PDE4B1): 8.09 −logIC50 (mol/l)
- melting point: 218 to 220 °C

Compound: CCOc1ccc(C2=NN(C3CCN(C(=O)CN4C(=O)CCC4=O)CC3)C(=O)C2(C)C)cc1OCC [Compound 3, 1-(2-{-4-[3-(3,4-diethoxyphenyl)-4,4-dimethyl-5-oxo-4,5-dihydro-1H-pyrazol-1-yl]piperidin-1-yl}-2-oxoethyl)pyrrolidine-2,5-dione]
- PDE4 Inhibition [measured as −logIC50 (mol/l)] (PDE4B1): 7.75 −logIC50 (mol/l)

Compound: CC1(C)C(=O)N(C2CCN(C(=O)CN3C(=O)CCC3=O)CC2)N=C1c1ccc(OC(F)F)c(OCC2CC2)c1 [Compound 4, 1-[2-(4-{3-[3-(cyclopropylmethoxy)-4-(difluoromethoxy)phenyl]-4,4-dimethyl-5-oxo-4,5-dihydro-1H-pyrazol-1-yl}piperidin-1-yl)-2-oxoethyl]pyrrolidine-2,5-dione]
- PDE4 Inhibition [measured as −logIC50 (mol/l)] (PDE4B1): 7.74 −logIC50 (mol/l)

Compound: COc1ccc(C2=NN(C3CCN(C(=O)CN4C(=O)CCC4=O)CC3)C(=O)C2(C)C)cc1OCC1CC1 [Compound 5, 1-[2-(4-{3-[3-(cyclopropylmethoxy)-4-methoxyphenyl]-4,4-dimethyl-5-oxo-4,5-dihydro-1H-pyrazol-1-yl}piperidin-1-yl)-2-oxoethyl]pyrrolidine-2,5-dione]
- PDE4 Inhibition [measured as −logIC50 (mol/l)] (PDE4B1): 7.15 −logIC50 (mol/l)
- melting point: 129 to 131 °C

Compound: COc1ccc(C2=NN(C3CCN(C(=O)CN4C(=O)CCC4=O)CC3)C(=O)C2(C)C)cc1OCC(F)(F)F [Compound 6, 1-[2-(4-{3-[4-methoxy-3-(2,2,2-trifluoroethoxy)phenyl]-4,4-dimethyl-5-oxo-4,5-dihydro-1H-pyrazol-1-yl}piperidin-1-yl)-2-oxoethyl]pyrrolidine-2,5-dione]
- PDE4 Inhibition [measured as −logIC50 (mol/l)] (PDE4B1): 6.84 −logIC50 (mol/l)

Compound: CCOc1cc(C2=NN(C3CCN(C(=O)CN4C(=O)CCC4=O)CC3)C(=O)C2(C)C)ccc1OC [Compound 7, 1-(2-{4-[3-(3-ethoxy-4-methoxyphenyl)-4,4-dimethyl-5-oxo-4,5-dihydro-1H-pyrazol-1-yl]piperidin-1-yl}-2-oxoethyl)pyrrolidine-2,5-dione]
- PDE4 Inhibition [measured as −logIC50 (mol/l)] (PDE4B1): 7.65 −logIC50 (mol/l)

Compound: COc1ccc(C2=NN(C3CCN(C(=O)CN4C(=O)CCC4=O)CC3)C(=O)C2(C)C)c2c1OC(C)(C)C2 [Compound 8]
- PDE4 Inhibition [measured as −logIC50 (mol/l)] (PDE4B1): 8.53 −logIC50 (mol/l)

Compound: COc1ccc(C2=NN(C3CCN(C(=O)CN4C(=O)CCC4=O)CC3)C(=O)C2(C)C)c2c1OC1(CCCC1)C2 [Compound 9]
- PDE4 Inhibition [measured as −logIC50 (mol/l)] (PDE4B1): 8.23 −logIC50 (mol/l)

Compound: CCCC1(C)C(=O)N(C2CCN(C(=O)CN3C(=O)CCC3=O)CC2)N=C1c1ccc(OC)c(OC)c1 (centres unmarked) [Compound 11, 1-(2-{4-[3-(3,4-dimethoxyphenyl)-4-methyl-5-oxo-4-propyl-4,5-dihydro-1H-pyrazol-1-yl]piperidin-1-yl}-2-oxoethyl)pyrrolidine-2,5-dione]
- PDE4 Inhibition [measured as −logIC50 (mol/l)] (PDE4B1): 8.08 −logIC50 (mol/l)

Compound: CCC1(C)C(=O)N(C2CCN(C(=O)CN3C(=O)CCC3=O)CC2)N=C1c1ccc(OC)c(OC)c1 (centres unmarked) [Compound 12, 1-(2-{4-[3-(3,4-dimethoxyphenyl)-4-ethyl-4-methyl-5-oxo-4,5-dihydro-1H-pyrazol-1-yl]piperidin-1-yl}-2-oxoethyl)pyrrolidine-2,5-dione]
- PDE4 Inhibition [measured as −logIC50 (mol/l)] (PDE4B1): 7.46 −logIC50 (mol/l)

Compound: COc1ccc(C2=NN(C3CCN(C(=O)CN4C(=O)CCC4=O)CC3)C(=O)C23CCCC3)cc1OC [Compound 13, 1-(2-{4-[4-(3,4-dimethoxyphenyl)-1-oxo-2,3-diazaspiro[4.4]non-3-en-2-yl]piperidin-1-yl}-2-oxoethyl)pyrrolidine-2,5-dione]
- PDE4 Inhibition [measured as −logIC50 (mol/l)] (PDE4B1): 7.79 −logIC50 (mol/l)

Compound: COc1ccc(C2=NN(C3CCN(C(=O)CN4C(=O)c5ccccc5C4=O)CC3)C(=O)C2(C)C)cc1OC [Compound 14, 2-(2-{4-[3-(3,4-dimethoxyphenyl)-4,4-dimethyl-5-oxo-4,5-dihydro-1H-pyrazol-1-yl]piperidin-1-yl}-2-oxoethyl)-1H-isoindole-1,3(2H)-dione]
- PDE4 Inhibition [measured as −logIC50 (mol/l)] (PDE4B1): 9.06 −logIC50 (mol/l)

Compound: COc1ccc(C2=NN(C3CCN(C(=O)CN4C(=O)CCCC4=O)CC3)C(=O)C2(C)C)cc1OC [Compound 15, 1-(2-{4-[3-(3,4-Dimethoxy-phenyl)-4,4-dimethyl-5-oxo-4,5-dihydro-pyrazol-1-yl]-piperidin-1-yl}-2-oxo-ethyl)-piperidine-2,6-dione]
- PDE4 Inhibition [measured as −logIC50 (mol/l)] (PDE4B1): 7.90 −logIC50 (mol/l)

Compound: COc1ccc(C2=NN(C3CCN(C(=O)CN4CCCC4=O)CC3)C(=O)C2(C)C)cc1OC [Compound 16, 5-(3,4-dimethoxyphenyl)-4,4-dimethyl-2-{1-[(2-oxopyrrolidin-1-yl)acetyl]piperidin-4-yl}-2,4-dihydro-3H-pyrazol-3-one]
- PDE4 Inhibition [measured as −logIC50 (mol/l)] (PDE4B1): 7.48 −logIC50 (mol/l)
- melting point: 125 to 131 °C

Compound: COc1ccc(C2=NN(C3CCN(C(=O)CN4C(=O)CSCC4=O)CC3)C(=O)C2(C)C)cc1OC [Compound 17, 4-(2-{4-[3-(3,4-dimethoxyphenyl)-4,4-dimethyl-5-oxo-4,5-dihydro-1′-1-pyrazol-1-yl]piperidin-1-yl}-2-oxoethyl)thiomorpholine-3,5-dione]
- PDE4 Inhibition [measured as −logIC50 (mol/l)] (PDE4B1): 8.27 −logIC50 (mol/l)

Compound: COc1ccc(C2=NN(C3CCN(C(=O)CN4C(=O)CS(=O)(=O)CC4=O)CC3)C(=O)C2(C)C)cc1OC [Compound 18, 4-(2-{-4-[3-(3,4-dimethoxyphenyl)-4,4-dimethyl-5-oxo-4,5-dihydro-1H-pyrazol-1-yl]piperidin-1-yl}-2-oxoethyl)thiomorpholine-3,5-dione 1,1-dioxide]
- PDE4 Inhibition [measured as −logIC50 (mol/l)] (PDE4B1): 8.42 −logIC50 (mol/l)
- melting point: 146 to 148 °C

Compound: COc1ccc(C2=NN(C3CCN(C(=O)CCN4C(=O)CCC4=O)CC3)C(=O)C2(C)C)cc1OC [Compound 19, 1-(3-{4-[3-(3,4-Dimethoxy-phenyl)-4,4-dimethyl-5-oxo-4,5-dihydro-pyrazol-1-yl]-piperidin-1-yl}-3-oxo-propyl)-pyrrolidine-2,5-dione]
- PDE4 Inhibition [measured as −logIC50 (mol/l)] (PDE4B1): 7.48 −logIC50 (mol/l)
- melting point: 207 to 209 °C

Compound: COc1ccc(C2=NN(C3CCN(C(=O)CN4C(=O)Cc5ccccc54)CC3)C(=O)C2(C)C)cc1OC [Compound 20, 1-(2-{4-[3-(3,4-Dimethoxy-phenyl)-4,4-dimethyl-5-oxo-4,5-dihydro-pyrazol-1-yl]-piperidin-1-yl}-2-oxo-ethyl)-1,3-dihydro-2H-indol-2-one]
- PDE4 Inhibition [measured as −logIC50 (mol/l)] (PDE4B1): 8.24 −logIC50 (mol/l)
- melting point: 178 °C
